This note sets out measurements from patent US10259823B2, “GLP-1 receptor modulators” (Celgene International II SÀRL, priority 2013, dated 2019).

For orientation: EC50 means the midpoint of the concentration-response curve.

T1 sequence (P43220 24-463): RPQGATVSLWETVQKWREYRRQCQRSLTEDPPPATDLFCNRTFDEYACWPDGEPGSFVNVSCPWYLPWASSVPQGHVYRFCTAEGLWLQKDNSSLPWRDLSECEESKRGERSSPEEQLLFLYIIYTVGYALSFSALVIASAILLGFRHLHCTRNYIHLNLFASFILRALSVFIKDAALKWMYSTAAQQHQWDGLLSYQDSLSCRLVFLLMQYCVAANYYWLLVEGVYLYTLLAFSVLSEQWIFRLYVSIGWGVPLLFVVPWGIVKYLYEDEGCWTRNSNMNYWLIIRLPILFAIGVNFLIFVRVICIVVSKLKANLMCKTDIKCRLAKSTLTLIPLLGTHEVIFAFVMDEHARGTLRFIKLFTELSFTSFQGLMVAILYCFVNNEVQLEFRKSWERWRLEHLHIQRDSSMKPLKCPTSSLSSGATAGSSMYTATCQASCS
T1 sequence (P01275 100-127 partner limits assumed): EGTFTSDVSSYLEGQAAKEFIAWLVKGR

This assay addresses T1, GLP-1R (Homo sapiens, UniProt P43220).
T1 construct: host or cells: CRE-bla CHO-K1
Nature of the assay: EC20 GLP-1(9-36) PAM cAMP assay: dose response of compound in the presence of fixed concentration of GLP-1(9-36). To be noted: GLP-1R CRE-bla CHO-K1 cells, compound dose response with fixed GLP-1(9-36), 30 min at 37° C. In kind it is cell-based. As for the experimental part:
EC20 GLP-1(9-36) PAM cAMP assay: dose response of compound in the presence of fixed concentration of GLP-1 (9-36).
GLP-1R CRE-bla CHO-K1 cells cultured in growth medium (DMEM-High glucose, 10% dialyzed FBS, 0.1 mM NEAA, 25 mM Hepes, 100 U/mL penicillin/100 μg/mL streptomycin, 5 μg/mL Blasticidin, 600 μg/mL Hygromycin) were trypsinized and plated in suspension into 384 well white flat bottom plates at 5000 cells/well in 12 μL assay buffer (Hanks Balanced Salt solution, 10 mM hepes, 0.1% BSA, pH 7.4). A 5× compound dose response curve (12-point) was generated in assay buffer containing 1.5 mM IBMX, 4% DMSO. GLP-1(9-36) was diluted to 4.2 μM in assay buffer containing 1.5 mM IMBX and 4% DMSO. The 5× compound dose response was added (3 μL), followed by 0.5 μL of GLP-1(9-36) and cells were incubated for 30 min at 37° C. Direct detection of cAMP was carried out using DiscoveRx HitHunter cAMP kit according to manufacturer's instructions and luminescence was read using a SpectraMax M5 plate reader. Luminescence was converted to total cAMP using a cAMP standard curve and data was analyzed by non-linear regression to determine the EC50 and Emax.
GLP-1(7-36): […]-NH2 (SEQ ID NO: GLP-1(9-36): […]-NH2(SEQ ID NO: 3) GLP-1(7-36) was purchased from GenScript. GLP-1(9-36) was purchased from Biopeptide Co., Inc.
Background: cAMP levels reflect the balance of adenylyl cyclase and phosphodiesterase activity.
As to `CCCCCCCOCCc1ccc(-c2nc(-c3ccc(C(NC(=O)c4ccc(C(C)(C)C)cc4)C(=O)O)cc3)no2)cc1` (centres unmarked) [Compound 71], the EC50 was 2500 to 5000 nM.
Consider `CCCCCCCOc1ccc(-c2cnc(-c3ccc(C[C@H](NC(=O)c4ccc(C(C)(C)C)s4)C(=O)N[C@H]4CCC[C@H]4C(=O)O)cc3)nc2)cc1` [Compound 382], for which the EC50 is 800 to 2500 nM.
Then `CCCCCCCOc1ccc(-c2cnc(-c3ccc(C[C@H](NC(=O)c4ccc(C(C)(C)C)cc4)C(=O)NC[C@H]4CCNC4)cc3)nc2)cc1` [Compound 413], with 5000 to 10000 nM; and `CCCCCCCOc1ccc(-c2cnc(-c3ccc(C[C@H](NC(=O)c4ccc(C(C)(C)C)s4)C(=O)N[C@@H](CC(=O)NC4CC4)C(=O)O)cc3)nc2)cc1` [Compound 514], with under 800 nM; and `CCCCCCCOc1ccc(-c2cnc(-c3ccc(C[C@H](NC(=O)c4ccc(C(C)(C)C)cc4)C(=O)NC(CCS(C)(=O)=O)C(=O)O)cc3)nc2)cc1` (some centres unmarked) [Compound 570], with under 800 nM.
`CCCCCCCOc1ccc(-c2cnc(-c3ccc(C[C@H](NC(=O)c4ccc(C(C)(C)C)cc4)C(=O)N[C@@H](Cc4cn(C)cn4)C(=O)O)cc3)nc2)cc1` [Compound 576]: the EC50 is 800 to 2500 nM.
For `CCCCCCCOc1ccc(-c2cnc(-c3ccc(C[C@H](NC(=O)c4ccc(C(C)(C)C)s4)C(=O)NC(C(=O)O)c4ccc(C)cc4)cc3)nc2)cc1` (some centres unmarked) [Compound 617], the EC50 is under 800 nM.
Turning to `CC(C)(C)c1ccc(C(=O)N[C@@H](Cc2ccc(-c3ncc(C4CCC(C(C)(C)C)CC4)cn3)cc2)C(=O)NCCC(=O)O)cc1` (some centres unmarked) [Compound 674], the EC50 was 5000 to 10000 nM.
Then `CCCCCCCOC1CCN(c2cnc(-c3ccc(C[C@H](NC(=O)c4ccc(C(C)(C)C)cc4)C(=O)NCCC(=O)O)cc3)nc2)CC1` [Compound 693], with 5000 to 10000 nM; and `C/C=C/CCCOc1ccc(-c2cnc(-c3ccc(C[C@H](NC(=O)c4ccc(C(C)(C)C)cc4)C(=O)NCCC(=O)O)cc3)nc2)cc1` [Compound 714], with 2500 to 5000 nM; and `CCCC/C=C/COc1ccc(-c2cnc(-c3ccc(C[C@H](NC(=O)c4ccc(C(C)(C)C)cc4)C(=O)NCCC(=O)O)cc3)nc2)cc1` [Compound 715], with 2500 to 5000 nM.
As for `CCCCCCCOc1ccc(-c2cnc(-c3ccc(C[C@H](NC(=O)c4ccc(OC(C)C)cc4)C(=O)N[C@H](C)C(=O)O)cc3)nc2)cc1` [Compound 820], the concentration for a half-maximal effect (EC50) was 2500 to 5000 nM.
`CCCCCCCOc1ccc(-c2cnc(-c3ccc(C[C@H](NC(=O)c4ccc(OC(F)(F)F)cc4)C(=O)N[C@H](C)C(=O)O)cc3)nc2)cc1` [Compound 821]: the concentration giving a half-maximal response (EC50) lay in the range of 800 to 2500 nM.
Turning to `CCCCCCCOc1ccc(-c2cnc(-c3ccc(C[C@H](NC(=O)[C@H]4CC[C@H](C(C)(C)C)CC4)C(=O)N4CC[C@H](C(=O)O)C4)cc3)nc2)cc1` [Compound 858], the EC50 was in the range of 800 to 2500 nM.
For `CCCCCCCOc1ccc(-c2cnc(-c3ccc(C[C@H](NC(=O)c4oc(C(C)(C)C)cc4C)C(=O)N4CC[C@H](C(=O)O)C4)cc3)nc2)cc1` [Compound 866], the 50% effective concentration (EC50) was 2500 to 5000 nM.
Then `CC(C)(C)CCCOc1ccc(-c2cnc(-c3ccc(C[C@H](NC(=O)c4ccc(C(C)(C)C)s4)C(=O)NC(C(=O)O)C(O)c4ccccc4)cc3)nc2)cc1` (some centres unmarked) [Compound 944], with under 800 nM; and `C[C@@H](NC(=O)[C@H](Cc1ccc(-c2ncc(-c3ccc(OCc4ccccc4)cc3F)cn2)cc1)NC(=O)c1ccc(C(C)(C)C)s1)C(=O)O` [Compound 1024], with 800 to 2500 nM.
